Data on one compound can be found in paper PMC8857485, “Prostate secretory protein 94 inhibits sterol binding and export by the mammalian CAP protein CRISP2 in a calcium-sensitive manner” (The Journal of Biological Chemistry, 2022).

Set-up in all cases: species or system mammalian
The target of one experiment is T1, CRISP2^N97P L98G (Homo sapiens, UniProt P16562, L98G/N97P).
T1 construct: made in house; host or cells: E. coli
T1 sequence (P16562 22-243 N97P/L98G): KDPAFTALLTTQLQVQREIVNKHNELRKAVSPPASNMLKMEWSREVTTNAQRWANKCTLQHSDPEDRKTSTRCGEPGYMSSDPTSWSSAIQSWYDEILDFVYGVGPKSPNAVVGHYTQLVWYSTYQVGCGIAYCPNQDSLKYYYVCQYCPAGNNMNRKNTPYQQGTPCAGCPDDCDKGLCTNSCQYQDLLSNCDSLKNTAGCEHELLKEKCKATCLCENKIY
Nature of the experiment: MST binding to CRISP2 double mutant N97P L98G. The following applies: absence of PSP94, read-out: Kd, sterol binding by CRISP2^N97P L98G. The procedure: (§1) Next, we generated all three double mutant combinations of CRISP2: N97P L98G, N97P Y99P, and L98G Y99P. These three double mutant versions of CRISP2 were again expressed as His-tagged proteins in E. coli and purified, and their capacity to bind sterols in the presence or absence of PSP94 was assessed by MST. […] The capacity of the CRISP2^L98G Y99P double mutant to bind sterols even in the presence of PSP94 was confirmed by the in vivo sterol export assay (Fig. 6, A and B). When expressed in yeast cells, the CRISP2^L98G Y99P double mutant was stably expressed and secreted as monitored by Western blotting (Fig. 6C).
(§2) MST experiments were performed to assess protein–protein, protein–lipid, and protein–calcium interactions using a Monolith NT.115 (Nanotemper Technologies). Proteins were labeled using the RED-tris-NTA His tag protein labeling kit. Labeled CAP proteins, 100 nM, were mixed with a serial dilution of unlabeled PSP94, PSP9^F24G, cholesterol sulfate, or calcium chloride, prepared in binding buffer (20 mM Tris pH 7.5, 30 mM NaCl, 0.05% Triton X-100). Samples were loaded into MST standard capillaries, and MST measurements were performed using an 80% laser power setting. The dissociation constant Kd was obtained by plotting the normalized fluorescence (Fnorm) against the logarithm of ligand concentration. […]

The target of the next experiment is T2, CRISP2^N97P Y99P (Homo sapiens, UniProt P16562, N97P/Y99P).
T2 construct: made in house; host or cells: E. coli
T2 sequence (P16562 22-243 N97P/Y99P): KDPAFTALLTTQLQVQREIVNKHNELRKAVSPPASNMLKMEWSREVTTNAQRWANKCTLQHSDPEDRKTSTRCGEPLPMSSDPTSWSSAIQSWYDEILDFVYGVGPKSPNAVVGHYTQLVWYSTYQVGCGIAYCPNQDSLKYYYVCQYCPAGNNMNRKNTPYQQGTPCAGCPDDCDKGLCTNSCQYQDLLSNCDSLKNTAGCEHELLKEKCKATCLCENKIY
Put plainly: MST binding to CRISP2 double mutant N97P Y99P. As to conditions: absence of PSP94, read-out: Kd, sterol binding by CRISP2^N97P Y99P. The procedure:
as §1, §2

In another experiment the target is T3, CRISP2^L98G Y99P (Homo sapiens, UniProt P16562, L98G/Y99P).
T3 construct: made in house; host or cells: E. coli
T3 sequence (P16562 22-243 L98G/Y99P): T1 sequence (P16562 22-243 N97P/L98G) with P76N, Y78P
Nature of the experiment: MST binding to CRISP2 double mutant L98G Y99P. The procedure:
as §1
MST experiments were performed to assess protein–protein, protein–lipid, and protein–calcium interactions using a Monolith NT.115 (Nanotemper Technologies). Proteins were labeled using the RED-tris-NTA His tag protein labeling kit. Labeled CAP proteins, 100 nM, were mixed with a serial dilution of unlabeled PSP94, PSP9^F24G, cholesterol sulfate, or calcium chloride, prepared in binding buffer (20 mM Tris pH 7.5, 30 mM NaCl, 0.05% Triton X-100). Samples were loaded into MST standard capillaries, and MST measurements were performed using an 80% laser power setting. The dissociation constant Kd was obtained by plotting the normalized fluorescence (Fnorm) against the logarithm of ligand concentration. Experiments were performed in triplicates, and data were fitted using the Kd model of the MO.Affinity Analysis software (Nanotemper Technologies). For binding inhibition studies, CAP proteins and PSP94 were preincubated for 5 min at 24 °C before performing binding studies with cholesterol sulfate.

Another experiment has as its target T4, CRISP2 L98G (Homo sapiens, UniProt P16562, L98G).
T4 construct: made in house; host or cells: E. coli
Nature of the experiment: MST binding to CRISP2 single mutant L98G. As to conditions: absence of PSP94, read-out: Kd, sterol binding by CRISP2 L98G. From the text:
(§3) This interaction is thus located outside the hydrophobic loop that harbors the sterol-binding CBM. Based on these structural considerations, it is thus not apparent why and how the interaction between PSP94 and CRISP2 would block sterol binding at the CBM. To investigate this question in more detail, we first performed computational docking studies to identify residues in CRISP2 that are critical for the interaction with PSP94. […] Two of these three interacting residues, N97 and L98, are conserved in all three CAP family members tested here, CRISP2, CRISP3, and Pry1 (Fig. 4A). […]
(§4) MST experiments were performed to assess protein–protein, protein–lipid, and protein–calcium interactions using a Monolith NT.115 (Nanotemper Technologies). […] The dissociation constant Kd was obtained by plotting the normalized fluorescence (Fnorm) against the logarithm of ligand concentration. […]
(§5) Quadruple mutant cells lacking the acyl-CoA synthetases FAA1 and FAA4 and the yeast CAP family members PRY1 and PRY3 (faa1∆ faa4∆ pry1∆ pry3∆) expressing different combinations of plasmid-borne copies of PRY1, CRISP2, and or PSP94, or their respective empty vectors (pRS423 or pRS426) were cultivated overnight. The export of fatty acids into the culture medium was then quantified. […]

The next experiment has as its target T5, CRISP2 Y99P (Homo sapiens, UniProt P16562, Y99P).
T5 construct: made in house; host or cells: E. coli
Nature of the experiment: MST binding to CRISP2 single mutant Y99P. The following applies: absence of PSP94, read-out: Kd, sterol binding by CRISP2 Y99P.
From the text: as §3, §4, §5

Residue numbers refer to the chain shown, from its start. Structures can show the parent of a compound that is named as a salt. Where two headings read alike, the source gives them in different places.

In general, Kd refers to the equilibrium constant for the complex coming apart.

T5 sequence (P16562 22-243 Y99P): as the sequence (P16562 22-243 N97P/Y99P) above, with P76N counted along it
T4 sequence (P16562 22-243 L98G): as the sequence (P16562 22-243 N97P/Y99P) above, with P76N, L77G, P78Y counted along it

As to `CC(C)CCC[C@@H](C)[C@H]1CC[C@H]2[C@@H]3CC=C4C[C@@H](OS(=O)(=O)O)CC[C@]4(C)[C@H]3CC[C@]12C` [cholesterol sulfate], the Kd turned out to be 3.8 ± 1.9 µM on CRISP2^N97P L98G; 2.7 ± 2.3 µM at CRISP2^N97P Y99P; 0.5 µM on CRISP2^L98G Y99P (+PSP94, read-out: Kd, sterol binding by CRISP2^L98G Y99P in presence of PSP94); 4.5 ± 2.08 µM on CRISP2^L98G Y99P (PSP94^F24G preincubated 5 min at 24 °C, read-out: Kd, sterol binding by CRISP2^L98G Y99P in presence of PSP94^F24G); 2.2 ± 1.7 µM at CRISP2^L98G Y99P (absence of PSP94, read-out: Kd, sterol binding by CRISP2^L98G Y99P); 95 ± 2.1 µM at CRISP2 L98G. The Kd at CRISP2 Y99P is 2.5 ± 0.9 µM.
